Results taken from patent publication US5095139A (Ciba-Geigy Corporation, priority 1986, dated 1992).

Legend:
solubility = assay type: physicochemical
Saccharomyces cerevisiae = settings: cited from earlier work
Candida albicans = settings: cited from earlier work
hyphal fungi = settings: cited from earlier work
[1] = test system: pronase from Streptomyces griseus; assay: pronase treatment
Procedure: The enzymatic hydrolysis of rhizocticine B (L-Val-L-Arg-L-APPA) to rhizocticine A with removal of valine is effected with pronase from Streptomyces griseus, a peptidase of low specificity. The enzymatic degradation of L-Val-L-Arg-L-APPA is effected quantitatively within a few minutes (approximately 15 minutes), the antifungal activity being obtained. By removing the N-terminal amino acid valine, rhizocticine A is formed. The hydrolysis is confirmed by thin-layer chromatography and ion-exchanger/amino acid analysis.

fungi = assay: antifungal activity of isolated tripeptides; assay type: cell-based; settings: isolated by HPLC from rhizocticine B isolates
pronase = pronase from Streptomyces griseus; settings: up to 12 hours
thermolysin = thermolysin (2 mg/ml) in 0.05N N-ethylmorpholinium acetate, 0.01 M CaCl2 ×6H2 O (pH 7.8); settings: 41° C., up to 30 hours

## N[C@@H](/C=C\CP(=O)(O)O)C(=O)O (stereo in doubt) [L-APPA, L-2-amino-5-phosphono-3-cis-pentenoic acid]
solubility; 35% ethanol
  Solubility: readily soluble
solubility; apolar solvents
  Solubility: insoluble
solubility; ethanol and higher alcohols
  Solubility: moderately soluble
solubility; water
  Solubility: readily soluble

## C[C@H](N)C(=O)N[C@@H](C[C@@H]1CCC(=O)[C@@H]2O[C@H]12)C(=O)O [Bacilysin, N-alanyl-3-(2,3-epoxycyclohexanon-4-yl)-alanine]
Saccharomyces cerevisiae
  inhibition: inhibits
Candida albicans
  inhibition: inhibits
Hyphal fungi
  action: virtually no action

## N=C(N)NCCC[C@H](N)C(=O)N[C@@H](/C=C\CP(=O)(O)O)C(=O)O [rhizocticine A, L-Arg-L-APPA]
solubility; 35% ethanol
  Solubility: readily soluble
solubility; apolar solvents
  Solubility: insoluble
solubility; ethanol and higher alcohols
  Solubility: moderately soluble
solubility; water
  Solubility: readily soluble
[1]; after 12 hours of pronase treatment
  loss of activity of the dipeptide formed: no loss of activity
[1]; native compound
  behaviour during the pronase treatment: remains inert

## CC(C)[C@H](N)C(=O)N[C@@H](CCCNC(=N)N)C(=O)N[C@@H](/C=C\CP(=O)(O)O)C(=O)O [rhizocticine B, L-Val-L-Arg-L-APPA]
solubility; 35% ethanol
  Solubility: readily soluble
solubility; apolar solvents
  Solubility: insoluble
solubility; ethanol and higher alcohols
  Solubility: moderately soluble
solubility; water
  Solubility: readily soluble
[1]; pronase
  time for quantitative enzymatic degradation (removal of N-terminal valine): approximately 15 minutes

## CC[C@H](C)[C@H](N)C(=O)N[C@@H](CCCNC(=N)N)C(=O)N[C@@H](/C=C\CP(=O)(O)O)C(=O)O [rhizocticine C, L-Ile-L-Arg-L-APPA]
fungi
  antifungal activity: antifungal

## CC(C)C[C@H](N)C(=O)N[C@@H](CCCNC(=N)N)C(=O)N[C@@H](/C=C\CP(=O)(O)O)C(=O)O [rhizocticine D, L-Leu-L-Arg-L-APPA]
fungi
  antifungal activity: antifungal

## L-Arg-L-APPA
pronase
  not cleaved: remains inert during the pronase treatment
thermolysin
  cleaved bond: L-Arg-L-APPA

## L-Val-L-Arg-L-APPA
pronase
  cleaved bond: L-Val-L-Arg, approximately 15 minutes
